The record followed here is ChEMBL document CHEMBL1155862, “High affinity conformationally constrained nociceptin/orphanin FQ(1-13) amide analogues” (J Med Chem, 2008).

Peptide text beside a SMILES is read from it.

In experiment [1] the target is T1, Nociceptin receptor (Homo sapiens, UniProt P41146). Briefly: Agonist activity at human NOP receptor expressed in CHO cells assessed as stimulation of [35S]GTPgammaS binding. The format is functional, cell-based.
For experiment [2], the target named is T1, Nociceptin receptor. Briefly: Displacement of [3H]N/OFQ from human NOP receptor expressed in CHO cells. The format is cell-based.
Experiment [3] has as its target T1, Nociceptin receptor. Briefly: Agonist activity at human NOP receptor expressed in CHO cells assessed as stimulation of [35S]GTPgammaS binding relative to nociceptin/orphanin FQ (1-13)NH2 peptide. In kind it is functional, cell-based.
The target of experiment [4] is T1, Nociceptin receptor. Briefly: Binding affinity to human NOP receptor.
In experiment [5] the target is T1, Nociceptin receptor. Briefly: Agonist activity at human NOP receptor by [35S]GTPgammaS binding assay. In kind it is functional.

T1 sequence (P41146 whole entry): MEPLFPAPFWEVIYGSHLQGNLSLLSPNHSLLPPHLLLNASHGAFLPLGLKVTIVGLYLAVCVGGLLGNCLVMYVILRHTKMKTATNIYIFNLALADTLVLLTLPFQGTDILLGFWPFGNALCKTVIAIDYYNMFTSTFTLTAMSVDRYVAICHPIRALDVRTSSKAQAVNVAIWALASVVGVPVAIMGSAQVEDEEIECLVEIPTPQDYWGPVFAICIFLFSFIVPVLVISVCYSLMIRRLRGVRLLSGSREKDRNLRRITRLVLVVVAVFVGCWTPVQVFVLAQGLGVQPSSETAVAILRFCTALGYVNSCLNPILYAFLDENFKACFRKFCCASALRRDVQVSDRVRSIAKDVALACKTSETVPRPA

Turning to `C[C@H](NC(=O)[C@@H]1CCCCNC(=O)C[C@H](NC(=O)[C@@H](NC(=O)[C@H](Cc2ccccc2)NC(=O)CNC(=O)CNC(=O)[C@@H](N)Cc2ccccc2)[C@@H](C)O)C(=O)N[C@@H](C)C(=O)N[C@@H](CCCN=C(N)N)C(=O)N[C@@H](CCCCN)C(=O)N1)C(=O)N[C@@H](CCCN=C(N)N)C(=O)N[C@@H](CCCCN)C(N)=O` (HELM PEPTIDE1{F.G.G.F.T.D.A.R.K.K.A.R.K.[am]}$PEPTIDE1,PEPTIDE1,6:R3-10:R3$$$V2.0), the EC50 at Nociceptin receptor [1] stood at 4120 pM. Also, on Nociceptin receptor [2], the Ki is 340 pM.
As to `C[C@H](NC(=O)[C@H](CCCCN)NC(=O)[C@H](CCCCN)NC(=O)[C@H](CCCN=C(N)N)NC(=O)[C@@H](CC(=O)O)NC(=O)CNC(=O)[C@@H](NC(=O)[C@H](Cc1ccccc1)NC(=O)CNC(=O)CNC(=O)[C@@H](N)Cc1ccccc1)[C@@H](C)O)C(=O)N[C@@H](CCCN=C(N)N)C(=O)N[C@@H](CCCCN)C(N)=O`, the concentration giving a half-maximal response (EC50) on Nociceptin receptor [1] was determined as 106000 pM. The Ki on Nociceptin receptor [2] turned out to be 1790 pM.
Take H-FGGFTDARKKARK-NH2: the Activity at Nociceptin receptor [3] came out at 122%. Besides, the EC50 at Nociceptin receptor [1] worked out at 22300 pM. In addition, at Nociceptin receptor [2], the Ki amounted to 540 pM.
As for `C[C@H](NC(=O)[C@H](CCCCN)NC(=O)[C@H](CCCCN)NC(=O)[C@H](CCCNC(=N)N)NC(=O)[C@@H](CC(=O)O)NC(=O)CNC(=O)[C@@H](NC(=O)[C@H](Cc1ccccc1)NC(=O)CNC(=O)CNC(=O)[C@@H](N)Cc1ccccc1)[C@@H](C)O)C(=O)N[C@@H](CCCNC(=N)N)C(=O)N[C@@H](CCCCN)C(N)=O`, the Activity on Nociceptin receptor [3] worked out at 100%.
With `C[C@H](NC(=O)[C@@H]1CCCCNC(=O)C[C@H](NC(=O)[C@@H](NC(=O)[C@H](Cc2ccccc2)NC(=O)CNC(=O)CNC(=O)[C@@H](N)Cc2ccccc2)[C@@H](C)O)C(=O)N[C@@H](C)C(=O)N[C@@H](CCCNC(=N)N)C(=O)N[C@@H](CCCCN)C(=O)N1)C(=O)N[C@@H](CCCNC(=N)N)C(=O)N[C@@H](CCCCN)C(N)=O` (HELM PEPTIDE1{F.G.G.F.T.D.A.R.K.K.A.R.K.[am]}$PEPTIDE1,PEPTIDE1,6:R3-10:R3$$$V2.0), at Nociceptin receptor [3], the Activity came out at 80%.
On to `C[C@H](NC(=O)[C@@H]1CSSC[C@H](NC(=O)[C@@H](NC(=O)[C@H](Cc2ccccc2)NC(=O)CNC(=O)CNC(=O)[C@@H](N)Cc2ccccc2)[C@@H](C)O)C(=O)N[C@@H](C)C(=O)N[C@@H](CCCNC(=N)N)C(=O)N[C@@H](CCCCN)C(=O)N1)C(=O)N[C@@H](CCCNC(=N)N)C(=O)N[C@@H](CCCCN)C(N)=O` (HELM PEPTIDE1{F.G.G.F.T.C.A.R.K.C.A.R.K.[am]}$PEPTIDE1,PEPTIDE1,6:R3-10:R3$$$V2.0), for which, on Nociceptin receptor [4], the Ki was found to be 830 pM.
Turning to `C[C@H](NC(=O)[C@@H]1CCCCNC(=O)C[C@H](NC(=O)CNC(=O)[C@@H](NC(=O)[C@H](Cc2ccccc2)NC(=O)CNC(=O)CNC(=O)[C@@H](N)Cc2ccccc2)[C@@H](C)O)C(=O)N[C@@H](CCCNC(=N)N)C(=O)N[C@@H](CCCCN)C(=O)N1)C(=O)N[C@@H](CCCNC(=N)N)C(=O)N[C@@H](CCCCN)C(N)=O`, the Activity on Nociceptin receptor [3] came out at 92%.
As for `C[C@H](NC(=O)[C@@H]1CSSC[C@H](NC(=O)CNC(=O)[C@@H](NC(=O)[C@H](Cc2ccccc2)NC(=O)CNC(=O)CNC(=O)[C@@H](N)Cc2ccccc2)[C@@H](C)O)C(=O)N[C@@H](CCCN=C(N)N)C(=O)N[C@@H](CCCCN)C(=O)N1)C(=O)N[C@@H](CCCN=C(N)N)C(=O)N[C@@H](CCCCN)C(N)=O` (HELM PEPTIDE1{F.G.G.F.T.G.C.R.K.C.A.R.K.[am]}$PEPTIDE1,PEPTIDE1,7:R3-10:R3$$$V2.0), at Nociceptin receptor [4], the Ki is 100 pM. Also, the response at Nociceptin receptor [5] was half-maximal at 690 pM (EC50).
On to `C[C@H](NC(=O)[C@@H]1CCCCNC(=O)C[C@@H](NC(=O)CNC(=O)[C@@H](NC(=O)[C@H](Cc2ccccc2)NC(=O)CNC(=O)CNC(=O)[C@@H](N)Cc2ccccc2)[C@@H](C)O)C(=O)N[C@@H](CCCNC(=N)N)C(=O)N[C@@H](CCCCN)C(=O)N1)C(=O)N[C@@H](CCCNC(=N)N)C(=O)N[C@@H](CCCCN)C(N)=O`, for which, at Nociceptin receptor [1], the EC50 turned out to be 1600 pM. Further, at Nociceptin receptor [2], the Ki was determined as 270 pM.
